Assay results taken from patent US20250034254A1, “USE OF ANTI-PD-1 ANTIBODY IN COMBINATION WITH CHEMOTHERAPY IN TREATING ESOPHAGEAL CANCER” (SHANGHAI JUNSHI BIOSCIENCES CO., LTD., priority 2021, published 2025).

Experiments:
[1] = Phase III clinical study of toripalimab (JS001) or placebo in combination with first-line chemotherapy: safety (SS population); conditions: human, in vivo
Excerpt: (§1) This is a randomized, double-blind, placebo-controlled, multicenter, phase III clinical study evaluating the efficacy and safety of toripalimab (JS001) or placebo in combination with first-line chemotherapy in patients with advanced or metastatic esophageal squamous cell carcinoma that are not previously treated with systemic chemotherapy and exploring the population with optimal biomarker prediction.
(§2) Approximately 514 patients with advanced or metastatic esophageal squamous cell carcinoma were randomized into two groups in a ratio of 1:1, with the treatment group receiving toripalimab in combination with first-line chemotherapy and the control group receiving placebo in combination with first-line chemotherapy. The patients were stratified by ECOG score (0 vs 1) and previous radiotherapy (present vs absence).
(§3) After randomization, the patients were subject to combination chemotherapy, receiving toripalimab or placebo+first-line chemotherapy for up to 6 cycles. After that, the patients were subject to maintenance therapy, continuously receiving toripalimab or placebo treatment until disease progression, intolerable toxicity, withdrawal from the study or up to 2 years.
(§4) Toripalimab 240 mg/placebo was administered by intravenous infusion once every three weeks (Q3W) in treatment cycles of 21 days. Treatment continued until the patients met the discontinuation criteria, i.e., recorded disease progression, unacceptable AE, investigator-assessed unsuitability for continued treatment, withdrawal of informed consent, 2 years of JS001 treatment or other reasons as specified in the protocol.
(§5) Intent-to-Treat (ITT) set: including all randomized patients during the primary study period. This analysis set was used as the primary analysis set for efficacy analysis. Per protocol set (PPS): including all ITT population having valid baseline information without major violation to the protocol that may affect the efficacy analysis. The PPS population was determined based on actual protocol violations before database lock of the study. The PPS population was used for sensitivity analysis of the primary efficacy endpoints as well as part of the secondary efficacy endpoints. Safety analysis set (SS): including all patients who received at least one dose of the study drug (JS001/placebo/chemotherapeutic agent).
All safety analyses were based on the SS population (514 patients), including 257 patients in the treatment group and 257 patients in the control group. Both groups were sufficiently exposed to JS001+chemotherapy treatment or placebo+chemotherapy treatment. The primary safety analysis results based on the SS population in the double-blind phase of the primary study are as follows: […]

[2] = system: patients with advanced or metastatic esophageal squamous cell carcinoma; assay: Phase III clinical study of toripalimab (JS001) or placebo in combination with first-line chemotherapy: efficacy (ITT, RECIST 1.1); format: in vivo, human; conditions: for Objective response rate (ORR) / Objective response rate (ORR), number of subjects: RECIST 1.1; for DCR inter-group difference (95% CI) / ORR inter-group difference (95% CI): JS001 + TP versus Placebo + TP; for Duration of response (DOR), median: patients with BOR of CR or PR
Excerpt: as §1
Eligible subjects shall meet the following criteria: (1) aged between 18 and 75 years; (2) histologically or pathologically confirmed metastatic or relapsed esophageal squamous cell carcinoma; (3) previously not treated for relapsed or metastatic ESCC; (4) at least one measurable lesion (according to RECIST 1.1); (5) an ECOG score of 0 or 1; (6) normal organ functions.
as §2, §3, §4
Toripalimab injection 240 mg/placebo was administered by intravenous infusion Q3W in treatment cycles of 21 days. Treatment continued until the patient met the discontinuation criteria, i.e., recorded disease progression, unacceptable AEs, investigator-assessed unsuitability for continued treatment, withdrawal of informed consent, 2 years of JS001 treatment or other reasons as specified in the protocol.
The patients received JS001/placebo+first-line chemotherapy during the combination chemotherapy period (up to 6 cycles). After that, the patients were subject to maintenance monotherapy, continuously receiving JS001/placebo treatment until disease progression, intolerable toxicity, withdrawal from the study or up to 2 years.
as §5
Unless otherwise specified, the efficacy analysis was based on the ITT set by treatment. […]

[3] = BICR-assessed, listed as treatment group
[4] = ITT, as of Mar. 22, 2021, median follow-up 7.343 months
[5] = ITT, assessed by the investigator

In the case of “JS001 + TP: toripalimab 240 mg Q3W in combination with first-line chemotherapy TP (paclitaxel 175 mg/m^2 + cisplatin 75 mg/m^2)”, the “SAE: anemia” value [1] is reported as 1.2%, the “SAE: asthenia” value [1] is reported as 1.2% and the “SAE: bone marrow depression” value [1] is reported as 1.2%. For the same substance, the “SAE: decreased leukocyte count” value [1] was 2.3%, the “SAE: decreased neutrophil count” value [1] was 1.6% and the “SAE: decreased platelet count” value [1] was 1.6%. For the same substance, the “SAE: dysphagia” value [1] was 1.2%, the “SAE: infectious pneumonitis” value [1] was 5.1% and the “SAE: vomiting” value [1] was 8.9%. For the same substance, the “TEAE: alopecia” value [1] was 35.4%, the “TEAE: anemia” value [1] was 77.0% and the “TEAE: asthenia” value [1] was 41.6%. For the same substance, the “TEAE: constipation” value [1] was 24.1%, the “TEAE: decreased appetite” value [1] was 39.3% and the “TEAE: decreased leukocyte count” value [1] was 67.7%. The “TEAE: decreased neutrophil count” value [1] was 66.9%, the “TEAE: decreased platelet count” value [1] was 28.4% and the “TEAE: diarrhea” value [1] was 23.0%. For the same substance, the “TEAE: nausea” value [1] was 42.8%, the “TEAE: vomiting” value [1] was 40.1% and the “TEAE: weight loss” value [1] was 28.8%. The “immune-related adverse events (irAEs), % of patients” value [1] was 37%, the “immune-related adverse events (irAEs), number of patients” value [1] was 95 and the “irAE resulting in death” value [1] was “no irAE resulting in death was reported”. For the same substance, the “irAEs of grade 3 or higher, % of subjects” value [1] was 6.6%, the “irAEs of grade 3 or higher, number of subjects” value [1] was 17 and the “proportion of SAEs of grade 3 or higher as per CTCAE” value [1] was 30.0%. For the same substance, the “proportion of TEAEs of grade 3 or higher as per CTCAE” value [1] was 73.2%, the “proportion of patients who experienced at least 1 TEAE” value [1] was 99.2% and the “proportion of treatment-emerged SAEs” value [1] was 36.2%. The “6-month DOR” value ([2]; BICR-assessed) was 47.4%, the “12-month DOR (1-year DOR rate)” value ([2]; BICR-assessed) was 28.2% and the “Best overall response: Complete response (CR)” value ([2]; BICR-assessed) was “(11.7) %”. For the same substance, the “Best overall response: Complete response (CR), number of subjects” value ([2]; BICR-assessed) was 30, the “Best overall response: Not applicable, number of subjects” value ([2]; BICR-assessed) was 0 and the “Best overall response: Not evaluable (NE), number of subjects” value ([2]; BICR-assessed) was 0. The “Best overall response: Partial response (PR)” value ([2]; BICR-assessed) was “(57.6) %”, the “Best overall response: Partial response (PR), number of subjects” value ([2]; BICR-assessed) was 148 and the “Best overall response: Progressive disease (PD)” value ([2]; BICR-assessed) was “(7.0) %”. The “Best overall response: Progressive disease (PD), number of subjects” value ([2]; BICR-assessed) was 18, the “Best overall response: Stable disease (SD), number of subjects” value ([2]; BICR-assessed) was 51 and the “Best overall response: non-CR/non-PD” value ([2]; BICR-assessed) was “(0.4) %”. For the same substance, the “Best overall response: non-CR/non-PD, number of subjects” value ([2]; BICR-assessed) was 1, the “DOR HR (95% CI)” value ([2]; BICR-assessed) was 0.58 (0.412, 0.810), P = 0.00136 and the “Disease control rate (DCR)” value ([2]; BICR-assessed) was 89.1%. The “Disease control rate (DCR), number of subjects” value ([2]; BICR-assessed) was 229, the “Objective response rate (ORR)” value ([2]; BICR-assessed) was 69.3% and the “Objective response rate (ORR), number of subjects” value ([2]; BICR-assessed) was 178. For the same substance, the “DCR inter-group difference (95% CI)” value ([2]; BICR-assessed) was 7.1 (1.1, 13.1) %, the “ORR inter-group difference (95% CI)” value ([2]; BICR-assessed) was 17.2 (9.0, 25.4) % and the “ORR inter-group difference (95% CI)” value [2, 3] was 17.2%. For the same substance, the “DOR HR (95% CI)” value [2, 3] was 0.58, the “Duration of response (DOR), median” value ([2]; BICR-assessed) was 5.6 month and the PFS subpopulation analysis ([2]; BIRC, ECOG score, previous radiotherapy, disease stage, PD-L1 expression, 11q13, TMB subpopulations) was “superiority in PFS”. The OS subpopulation analysis ([2]; ECOG score, previous radiotherapy, disease stage, PD-L1 expression, 11q13, TMB subpopulations) was “superiority in OS”, the “OS hazard ratio (HR), treatment vs control group” value ([2]; ITT population) was 0.58 and the “median OS” value ([2]; ITT population) was 17.0 months. The “prolongation of median OS versus chemotherapy” value ([2]; ITT population) was 6 months, the “reduction of death hazard versus chemotherapy” value ([2]; ITT population) was 42% and the “deaths reported, % of patients” value [2, 4] was 27.2%. The “deaths reported, number of patients” value [2, 4] was 70, the “1-year PFS rate” value ([2]; ITT, assessed by BIRC) was 27.8% and the “PFS hazard ratio (HR), treatment vs control group” value ([2]; ITT, assessed by BIRC) was 0.58. The “reduction of progression or death hazard versus chemotherapy” value ([2]; ITT, assessed by BIRC) was 42%, the “median PFS” value ([2]; ITT, assessed by BIRC based on RECIST 1.1) was 5.7 months and the “PFS hazard ratio (HR), treatment vs control group” value [2, 5] was 0.58. For the same substance, the “reduction of progression or death hazard versus chemotherapy” value [2, 5] was 42%, the “median PFS” value ([2]; ITT, assessed by the investigator based on RECIST 1.1) was 7.0 months and the “6-month DOR” value ([2]; Investigator-assessed) was 55.6%. The “12-month DOR” value ([2]; Investigator-assessed) was 30.9%, the “Best overall response: Complete response (CR)” value ([2]; Investigator-assessed) was “(5.1) %” and the “Best overall response: Complete response (CR), number of subjects” value ([2]; Investigator-assessed) was 13. The “Best overall response: Not evaluable (NE), number of subjects” value ([2]; Investigator-assessed) was 0, the “Best overall response: Partial response (PR)” value ([2]; Investigator-assessed) was “(67.3) %” and the “Best overall response: Partial response (PR), number of subjects” value ([2]; Investigator-assessed) was 173. The “Best overall response: Progressive disease (PD)” value ([2]; Investigator-assessed) was “(3.9) %”, the “Best overall response: Progressive disease (PD), number of subjects” value ([2]; Investigator-assessed) was 10 and the “Best overall response: Stable disease (SD), number of subjects” value ([2]; Investigator-assessed) was 52. The “DOR HR (95% CI)” value ([2]; Investigator-assessed) was 0.50 (0.359, 0.684), P = 0.00001, the “Disease control rate (DCR)” value ([2]; Investigator-assessed) was 92.6% and the “Disease control rate (DCR), number of subjects” value ([2]; Investigator-assessed) was 238. For the same substance, the “Objective response rate (ORR)” value ([2]; Investigator-assessed) was 72.4%, the “Objective response rate (ORR), number of subjects” value ([2]; Investigator-assessed) was 186 and the “DCR inter-group difference (95% CI)” value ([2]; Investigator-assessed) was 5.5 (0.3, 10.7) %. For the same substance, the “ORR inter-group difference (95% CI)” value ([2]; Investigator-assessed) was 14.1 (6.0, 22.2) %, the “ORR inter-group difference (95% CI)” value ([2]; Investigator-assessed, listed as treatment group) was 14% and the “Duration of response (DOR), median” value ([2]; Investigator-assessed) was 4.2 month. The “prolongation of DOR over the control group” value ([2]; assessed by BIRC) was 1.4 months.
